BindingDB's records for doi:10.1016/j.bmcl.2009.04.023 (Banyu Pharmaceutical, 2009)
pIC50: −log10 of the molar value.

target: Nociceptin receptor (Homo sapiens, UniProt P41146); assay: In Vitro Binding Assay (IC50) and In Vitro Agonism/Antagonism Measurements (EC50/IC50); settings: pH 7.4; 37 °C
Experimental: Compounds were tested for their inhibitory effects on ligand binding to the human ORL1 receptor. Bound and free radioligands are separated by filtration using a unifilter plate GF/C-96. The remaining radioactivity on the filter was counted using a TopCount-HTS (PerkinElmer). Specific binding of [125I][Tyr14]nociceptin is defined as the difference between total binding and nonspecific binding in the presence of 1 uM nociceptin. J-113397 was used as internal control across all assay plates for internal validation. IC50 values are calculated using GraphPad Prism. Agonist/antagonist activities were measured by the [35S]GTPgamma-S binding to proteins using membrane fractions of CHO cells expressing ORL1. Nonspecific binding is determined in the presence of 10 uM unlabeled GTPgammaS. Membrane-bound radioactivity is measured using a TopCount-HTS (PerkinElmer). Specific binding of [35S]GTPgammaS is determined as a difference between the control (in the presence of appropriate concentration of nociceptin), and the baseline (in the presence of DMSO instead of compound). EC50/IC50 values are calculated from % of specific binding in the presence of various concentration of the compound using GraphPad Prism 3.03.

Chain of Nociceptin receptor (P41146 whole entry): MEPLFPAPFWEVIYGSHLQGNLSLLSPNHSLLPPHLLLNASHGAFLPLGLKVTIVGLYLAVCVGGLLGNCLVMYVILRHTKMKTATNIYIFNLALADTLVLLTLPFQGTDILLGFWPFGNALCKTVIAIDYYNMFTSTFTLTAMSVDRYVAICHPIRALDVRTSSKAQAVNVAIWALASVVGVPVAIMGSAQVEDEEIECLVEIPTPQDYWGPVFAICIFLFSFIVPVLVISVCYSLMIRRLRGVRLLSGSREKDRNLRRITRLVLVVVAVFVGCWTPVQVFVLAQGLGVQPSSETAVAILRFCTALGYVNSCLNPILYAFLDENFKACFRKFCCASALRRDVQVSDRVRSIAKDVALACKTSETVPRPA

Structure (SMILES)	pIC50
CCN1CCN(c2cc3[nH]c(C(=O)[C@]4(C)CC[C@@H](NC(=O)OC)CC4)nc3cc2Cl)CC1 [2-Cyclohexylcarbonylbenzimidazole, 7a]	8.12
CCN1CCN(c2cc3[nH]c(C(=O)[C@]4(C)CC[C@@H](NC(=O)OC)CC4)nc3cc2C)CC1 [2-Cyclohexylcarbonylbenzimidazole, 7b]	8.28

The next lines start with the values.

pIC50	Structure (SMILES)
8.89	CCN1CCN(c2cc3[nH]c(C(=O)[C@]4(C)CC[C@@](C)(O)CC4)nc3cc2Cl)CC1 [2-Cyclohexylcarbonylbenzimidazole, 7c]
8.62	CCN1CCN(c2cc3[nH]c(C(=O)[C@]4(CC)CC[C@@](C)(O)CC4)nc3cc2Cl)CC1 [2-Cyclohexylcarbonylbenzimidazole, 7e]
7.42	CCN1CCN(c2cc3[nH]c(C(=O)C4(C)CCC(=O)CC4)nc3cc2Cl)CC1 [2-Cyclohexylcarbonylbenzimidazole, 9]
